# According to patent US12680077B2, “Generating populations of human blood and blood vessel progenitors from pluripotent stem cells” (The Board of Trustees of the Leland Stanford Junior …, priority 2020, dated 2026):
# Legend:
# Type in all cases: cell-based, human
# [1] = tested on: day 6 hPSC-derived hemogenic endothelium; assay: Differentiation of day 6 hemogenic endothelium into day 9 HSC-like cells (qPCR, flow cytometry); details: for expression of GATA1 and CD45RA: SR1 and UM171 applied together, days 6-9; for formation of hPSC-derived HSC-like cells: presence vs absence of both UM171 and SR1, 3 days, flow cytometry for CD45+ CD45RA- on day 9
# Protocol: FIG. 13: Optimizing the generation of, and characterizing, hPSC-derived HSC-like cells. […] B) qPCR was performed during hPSC differentiation into HSC-like cells every 24 hours; gene expression was normalized such that undifferentiated hPSCs=1.0. […] D) Flow cytometry strategy to purify i) CD144^+ CD45^+ CD45RA^− hPSC-derived day-9 HSC-like cells and ii) CD34^+ CD90^+ cord blood HSPCs vs. CD34^+ CD90^− cord blood non-HSCs (expanded for 3 days ex vivo prior to FACS sorting) for transcriptional analysis.
# Day 6-9 (HSC-like cell induction, 72 hours [Step 5b]). Day 6 hemogenic endothelium cells were briefly washed (DMEM/F12, Thermo Fisher) and then differentiated towards HSC-like cells in CDM3 media supplemented with Forskolin (10 μM), IL1β (5 ng/mL, R&D Systems), LIF (20 ng/mL), OSM (10 ng/mL), SB505124 (2 μM), SR1 (750 nM, Cellagen Technology) and UM171 (75 nM, ApexBio) for 72 hours. HSC-like cell induction media was refreshed every 24 hours.
# Flow cytometry. Undifferentiated and differentiated hPSCs were dissociated by incubation in TrypLE Express (Gibco) for 5 minutes at 37° C. Subsequently, dissociated cells in TrypLE Express were diluted 1:10 in DMEM/F12 and centrifuged (pelleted) at 500 g for 5 minutes. Each cell pellet was resuspended in FACS buffer (PBS+1 mM EDTA [Invitrogen]+2% v/v FBS [Atlanta Bio]+1% Penicillin/Streptomycin [Gibco]) supplemented with fluorescently-conjugated primary antibodies, and antibody staining occurred for 30 minutes on ice protected from light. After staining, cells were washed twice with FACS buffer and resuspended in 200 μL FACS buffer with DAPI (1:10,000, Biolegend) for live/dead discrimination. Samples were run on a Beckman Coulter CytoFlex analyzer (Stanford Stem Cell Institute FACS Core). For data analysis, cells were gated based on forward and side scatter with height and width used for doublet discrimination. Subsequently, live cells that were negative for DAPI were gated for all marker analyses and calculations of population frequency.
# Quantitative PCR. Undifferentiated or differentiated hPSCs were lysed in 350 μL of RLT Plus Buffer and RNA was extracted using the RNeasy Plus Mini Kit (Qiagen) according to the manufacturer's protocol. 300 ng of total RNA was reverse transcribed into cDNA for qPCR using the High-Capacity cDNA Reverse Transcription Kit (Applied Biosystems) according to the manufacturer's protocol. qPCR was performed in 384-well format as previously described (Loh et al., 2016), using gene-specific forward and reverse primers on a QuantStudio 5 qPCR machine (Thermo Fisher). Expression of all genes was normalized to the levels of the reference gene YWHAZ.
# [2] = tested on: hPSC-derived day-3 trunk artery cells; assay: Differentiation of hPSC-derived day-3 trunk artery cells into hemogenic endothelium / HSC-like cells (qPCR, flow cytometry); details: 24 hours, OSM and LIF withheld together
# Protocol: (§1) FIG. 4: Efficient generation of trunk artery and hemogenic endothelium from hPSCs within 3 and 6 days, respectively. A) Cartoon of the strategy to generate trunk artery, hemogenic endothelium and HSC-like cells. B) Retinoic acid (RA) signaling induces HOXA1-5 genes in hPSC-derived trunk artery cells; day 1 hPSC-derived primitive streak cells were differentiated into trunk artery cells over the course of 48 hours, in the presence or absence of an RA agonist (TTNPB). C) Flow cytometry (left) and qPCR (right) of hPSC-derived trunk artery cells; for the qPCR data, gene expression is normalized for each gene to undifferentiated hPSCs (gene expression levels in hPSCs=1.0); as a negative control, hPSC-derived artery cells (white bar, generated in the absence of RA agonist) is shown. D) hPSC-derived day-3 trunk artery cells were differentiated into hemogenic endothelium for 24 hours in the complete hemogenic endothelium medium (Forskolin, SB505124, OSM and LIF), or in media where either Forskolin was withheld; SB505124 was withheld; or both OSM and LIF were withheld.
# FIG. 12: Optimizing the generation of trunk artery, hemogenic endothelium and HSC-like cells from hPSCs. A) Retinoic acid (RA) signaling induces HOXA1-5 genes in hPSC-derived trunk artery cells; day 1 hPSC-derived primitive streak cells were differentiated into trunk artery cells over the course of 48 hours, in the presence or absence of RA agonists (ATRA, AM580 or TTNPB) on day 2 alone (for 24 hours), day 3 alone (for 24 hours) or day 2-3 interval (for 48 hours) B) hPSC-derived trunk artery cells can be generated in defined conditions on a defined extracellular matrix (ECM); hPSCs were plated on Geltrex (an undefined ECM matrix); bulk laminin; or recombinant vitronectin or laminin-511. C) hPSCs were differentiated into day-3 artery cells (without RA agonist) or day-3 trunk artery cells (with RA agonist); and then were further differentiated over the course of 6 further days into day-9 HSC-like cells. […]
# (§2) Quantitative PCR. […]
# [3] = tested on: day 1 hPSC-derived primitive streak cells; assay: Differentiation of day 1 primitive streak into trunk artery cells with RA agonists (qPCR, flow cytometry); details: for HOXA1-HOXA5 expression by day 3: RA agonist for 48 hours (days 2-3), qPCR; for formation of CD144+ CD43+ blood progenitors by day 9: RA agonist on days 2-3, then 6 further days of differentiation
# Protocol: as §1
# FIG. 12: Optimizing the generation of trunk artery, hemogenic endothelium and HSC-like cells from hPSCs. A) Retinoic acid (RA) signaling induces HOXA1-5 genes in hPSC-derived trunk artery cells; day 1 hPSC-derived primitive streak cells were differentiated into trunk artery cells over the course of 48 hours, in the presence or absence of RA agonists (ATRA, AM580 or TTNPB) on day 2 alone (for 24 hours), day 3 alone (for 24 hours) or day 2-3 interval (for 48 hours) B) hPSC-derived trunk artery cells can be generated in defined conditions on a defined extracellular matrix (ECM); hPSCs were plated on Geltrex (an undefined ECM matrix); bulk laminin; or recombinant vitronectin or laminin-511. C) hPSCs were differentiated into day-3 artery cells (without RA agonist) or day-3 trunk artery cells (with RA agonist); and then were further differentiated over the course of 6 further days into day-9 HSC-like cells. […] G) qPCR of hPSC differentiation into trunk arteries (day 3) and their conversion into hemogenic endothelium (day 6); qPCR data are normalized such that for each gene, expression levels in undifferentiated hPSCs=1.0.
# Day 2 (trunk dorsal lateral mesoderm induction, 24 hours [Step 2b]). Day 1 mid primitive streak cells were briefly washed (DMEM/F12, Thermo Fisher) and then differentiated towards dorsal lateral mesoderm in CDM2 media supplemented with BMP4 (40 ng/mL), GDC-0941 (2.5 μM, Cellagen Technology), Forskolin (10 μM, Tocris), SB-505124 (2 μM, Tocris), VEGF (100 ng/mL, R&D Systems), XAV939 (1 μM, Tocris), AA2P (200 μg/mL) and TTNPB (0.5 nM) for 24 hours (i.e., the same media as dorsal lateral mesoderm induction, with the addition of TTNPB). […]
# as §2
# [4] = tested on: day 1 hPSC-derived primitive streak; assay: Dorsal lateral mesoderm induction from day 1 primitive streak (qPCR on day 2); details: day 2 of differentiation, 24 hours
# Protocol: FIG. 1: Efficient generation of human primitive streak and dorsal lateral mesoderm from hPSCs. A) Chronology of artery and vein development in vivo within mouse embryos (top) and in vitro from human pluripotent stem cells (hPSCs; bottom). B) Efficient generation of MIXL1^+ mid primitive streak within 24 hours of hPSC differentiation, as assayed by flow cytometry of a MIXL1-GFP reporter hESC line C) In vivo identification of candidate dorsal lateral mesoderm: from a scRNAseq profile of the E7.0 mouse embryo, Hand1^+ Elf5^− lateral mesoderm was computationally identified and then sub-clustered; marker genes shown superimposed on t-SNE (top) and in violin plots (below [CPM: counts per million]). […]
# as §2
molecule,measurement,setting,value
IL1: inflammatory signal IL1β,blood formation in vitro,[1]; inflammatory signal added days 6-9,modestly promoted
"Cc1cccc(-c2[nH]c(C(C)(C)C)nc2-c2ccc3c(c2)OCO3)n1 [SB505124, 2-[4-(1,3-Benzodioxol-5-yl)-2-(1,1-dimethylethyl)-1H-imidazol-5-yl]-6-methyl-pyridine]",RUNX1 expression by day 4 upon individual withdrawal of the agent from hemogenic endothelium medium,[2],reduced
LIF: GP130 agonist,RUNX1 expression by day 4 upon individual withdrawal of the agent from hemogenic endothelium medium,[2],reduced
C/C(=C\c1ccc(C(=O)O)cc1)c1ccc2c(c1)C(C)(C)CCC2(C)C [TTNPB],HOXA1-HOXA5 expression by day 3,[3],enhanced
same,formation of CD144+ CD43+ blood progenitors by day 9,[3],promote
Cn1nnc(-c2ccc3c(c2)[nH]c2nc(Cc4ccccc4)nc(NC4CCC(N)CC4)c23)n1 (centres unmarked) [UM171],expression of GATA1 and CD45RA,[1],decreased
same,formation of hPSC-derived HSC-like cells,[1],enhanced
VEGF,"expression of SCL, LMO2 and FLI1 (dorsal lateral mesoderm specification)",[4],upregulated
CC(C)n1cnc2c(NCCc3ccc(O)cc3)nc(-c3csc4ccccc34)nc21 [SR1],expression of GATA1 and CD45RA,[1],decreased
same,formation of hPSC-derived HSC-like cells,[1],enhanced
AM580,HOXA1-HOXA5 expression by day 3,[3],enhanced
same,formation of CD144+ CD43+ blood progenitors by day 9,[3],promote
"BMP: BMP agonist; BMP4 used in the experiments (protein, UniProt P12644 293-408, looked up) Bone morphogenetic protein 4: SPKHHSQRARKKNKNCRRHSLYVDFSDVGWNDWIVAPPGYQAFYCHGDCPFPLADHLNSTNHAIVQTLVNSVNSSIPKACCVPTELSAISMLYLDEYDKVVLKNYQEMVVEGCGCR","expression of SCL, LMO2 and FLI1 (dorsal lateral mesoderm specification)",[4],upregulated
"OSM: GP130 agonist (protein, UniProt P13725 26-221, looked up) Oncostatin-M: AAIGSCSKEYRVLLGQLQKQTDLMQDTSRLLDPYIRIQGLDVPKLREHCRERPGAFPSEETLRGLGRRGFLQTLNATLGCVLHRLADLEQRLPKAQDLERSGLNIEDLEKLQMARPNILGLRNNIYCMAQLLDNSDTAEPTKAGRGASQPPTPTPASDAFQRKLEGCRFLHGYHRFMHSVGRVFSKWGESPNRSRR",RUNX1 expression by day 4 upon individual withdrawal of the agent from hemogenic endothelium medium,[2],reduced
